What was measured:
Aβ1-42 = experiment: Measurement of Aβ1-42 in culture medium of 7W WT APP751 CHO cells by ELISA; type: cell-based, Chinese hamster; settings: for Aβ1-42 (% of control): CHO cells that overexpress APP751, zero = below the detection limit of the assay; for activity at 5 µM: Cricetulus griseus, Table 1, 5 μM test compound, CHO cells stably transfected with human APP751, culture medium, ELISA, control DMSO, 0 = no detectable amount, read-out: Aβ1-42 (% of control)
Aβ1-40 = experiment: Measurement of Aβ1-40 in culture medium of 7W WT APP751 CHO cells by ELISA; type: cell-based, Chinese hamster; settings: for Aβ1-40 (% of control): CHO cells that overexpress APP751, zero = below the detection limit of the assay; for activity at 5 µM: Cricetulus griseus, Table 1, 5 μM test compound, CHO cells stably transfected with human APP751, culture medium, ELISA, control DMSO, 0 = no detectable amount
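Further: 5 µM test compound but RI-coded compounds at 10 µM for 24 hours.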

Row | Compound | Aβ1-42 (% of control) (Aβ1-42) | Aβ1-40 (% of control) (Aβ1-40) | activity at 5 µM (Aβ1-42) [%] | activity at 5 µM (Aβ1-40) [%]
1 | CCOc1ccc(NC(=O)CSC2=C(C#N)C(c3cccs3)C(C(=O)Nc3ccccc3C)=C(C)N2)cc1 (centres unmarked) [ST050838, 2-{3-cyano-6-methyl-5-[N-(2-methylphenyl)carbamoyl]-4-(2-thienyl)(2-1,4-dihydropyridylthio)}-N-(4-ethoxyphenyl)acetamide] | 56.66 % of control | 70.76 % of control |  | 
2 | CCc1cccc(NC(=O)CSC2=C(C#N)C(c3ccc(-c4cccs4)s3)C(C(=O)Nc3ccccc3)=C(C)N2)c1 (centres unmarked) [RI_90] | 42.9 % of control | 63.9 % of control |  | 
3 | COc1ccc(C2CC(=O)C3=C(C2)NC(C)=C(C(=O)OCc2ccccc2)C3c2ccc3c(c2)OCO3)cc1 (centres unmarked) [ST017133, phenylmethyl 4-(2H-benzo[3,4-d]1,3-dioxolen-5-yl)-7-(4-methoxyphenyl)-2-methyl-5-oxo-1,4,6,7,8-pentahydroquinoline-3-carboxylate] |  |  | 79.2 | 39.2
4 | CC1=C(C(=O)Nc2ccccc2)C(c2ccsc2)C(C#N)=C(SCC(=O)Nc2ccc(C(C)(C)C)cc2)N1 (centres unmarked) [RI_64] | 41.3 % of control | 34.1 % of control |  | 
5 | CC1=C(C(=O)Nc2ccccc2)C(c2ccsc2)C(C#N)=C(SCC(=O)Nc2ccc(Br)cc2)N1 (centres unmarked) [RI_73] | 34.9 % of control | 24.3 % of control |  | 
6 | CC1=C(C(=O)OC(C)(C)C)C(c2ccc(Cl)cc2)C(C#N)=C(SCC(=O)Nc2cc(C)ccc2C)N1 (centres unmarked) [ST050428, tert-butyl 6-{[N-(2,5-dimethylphenyl)carbamoyl]methylthio}-4-(4-chlorophenyl)-5-cyano-2-methyl-1,4-dihydropyridine-3-carboxylate] | 65.47 % of control | 95.74 % of control |  | 
7 | CC1=C(C(=O)OCCc2ccccc2)C(c2ccccc2)C2=C(CC(C)(C)CC2=O)N1 (centres unmarked) [ST015054, 2-phenylethyl 2,7,7-trimethyl-5-oxo-4-phenyl-1,4,6,7,8-pentahydroquinoline-3-carboxylate] |  |  | 44.2 | 29.9
8 | COc1cc(C2C(C(=O)OC3CCCCC3)=C(C)NC3=C2C(=O)CC(c2ccccc2)C3)cc(Cl)c1O (centres unmarked) [ST017050, cyclohexyl 4-(3-chloro-4-hydroxy-5-methoxyphenyl)-2-methyl-5-oxo-7-phenyl-1,4,6,7,8-pentahydroquinoline-3-carboxylate] |  |  | 22.2 | 39.6
9 | CCOC(=O)C1=c2s/c(=C/c3ccc(C)s3)c(=O)n2C(N)=C(C#N)C1c1ccc(C)s1 (centres unmarked) [ST011766] | 9.558 % of control | 21.1 % of control |  | 
10 | CCCCOC(=O)C1=C(C)NC2=C(C(=O)CCC2)C1c1ccc(Cl)cc1 (centres unmarked) [ST017175, butyl 4-(4-chlorophenyl)-2-methyl-5-oxo-1,4,6,7,8-pentahydroquinoline-3-carboxylate] |  |  | 34.5 | 59.8
11 | COc1ccc(C2C(C(=O)OCCOc3ccccc3)=C(C)NC3=C2C(=O)CC(C)(C)C3)cc1O (centres unmarked) [ST052422, 2-phenoxyethyl 4-(3-hydroxy-4-methoxyphenyl)-2,7,7-trimethyl-5-oxo-1,4,6,7,8-pentahydroquinoline-3-carboxylate] |  |  | 44.8 | 38.3
12 | COc1ccc(COC(=O)C2=C(C)NC3=C(C(=O)CC(C)(C)C3)C2c2ccc(Cl)c([N+](=O)[O-])c2)cc1 (centres unmarked) [ST052357, (4-methoxyphenyl)methyl 4-(4-chloro-3-nitrophenyl)-2,7,7-trimethyl-5-oxo-1,4,6,7,8-pentahydroquinoline-3-carboxylate] |  |  | 23.4 | 13.3
13 | CCCOC(=O)C1=C(C)NC2=C(C(=O)CC(C)(C)C2)C1c1ccc(OC)cc1OC (centres unmarked) [ST017226, propyl 4-(2,4-dimethoxyphenyl)-2,7,7-trimethyl-5-oxo-1,4,6,7,8-pentahydroquinoline-3-carboxylate] |  |  | 26.5 | 23.6
14 | CCC(C)c1ccccc1NC(=O)CSC1=C(C#N)C(c2ccsc2)C(C(=O)Nc2ccccc2)=C(C)N1 (centres unmarked) [RI_68] | 100 % of control | 74.6 % of control |  | 
15 | CC1=C(C(=O)OC(C)C)C(c2ccccc2)C2=C(CC(c3ccccc3)CC2=O)N1 (centres unmarked) [ST017212, methylethyl 2-methyl-5-oxo-4,7-diphenyl-1,4,6,7,8-pentahydroquinoline-3-carboxylate] |  |  | 57.1 | 25.4
16 | CC1=C(C(=O)OCC(C)C)C(c2ccccc2F)C2=C(CC(c3cccs3)CC2=O)N1 (centres unmarked) [ST051566, 2-methylpropyl 4-(2-fluorophenyl)-2-methyl-5-oxo-7-(2-thienyl)-1,4,6,7,8-pentahydroquinoline-3-carboxylate] |  |  | 96.1 | 63.4
17 | CC1=C(C(=O)Nc2ccccc2)C(c2cccs2)C(C#N)=C(SCC(=O)Nc2ccc(C(C)(C)C)cc2)N1 (centres unmarked) [RI_63] | 38.8 % of control | 38.2 % of control |  | 
18 | N#CC1=C(N)n2c(s/c(=C\c3ccc(O)cc3)c2=O)=C(C#N)C1c1ccc(O)cc1 (centres unmarked) [ST025034, 5-amino-7-(4-hydroxyphenyl)-2-[(4-hydroxyphenyl)methylene]-3-oxo-4,7-dihydro-1,3-thiazolidino[3,2-a]pyridine-6,8-dicarbonitrile] | 85.11 % of control | 69.9 % of control |  | 
19 | CCc1ccc(C2C(C(=O)OCc3ccccc3)=C(C)NC3=C2C(=O)CCC3)cc1 (centres unmarked) [ST015031, phenylmethyl 4-(4-ethylphenyl)-2-methyl-5-oxo-1,4,6,7,8-pentahydroquinoline-3-carboxylate] |  |  | 71.3 | 33.1
20 | CCc1cccc(NC(=O)CSC2=C(C#N)C(c3ccc(-c4ccccn4)s3)C(C(=O)Nc3ccccc3)=C(C)N2)c1 (centres unmarked) [RI_86] | 21.8 % of control | 32.8 % of control |  | 
21 | COC(=O)C1=CN(CC2CCCO2)C=C(C(=O)OC)C1c1ccc(Cl)c(Cl)c1 (centres unmarked) [ST045237, methyl 4-(3,4-dichlorophenyl)-5-(methoxycarbonyl)-1-(oxolan-2-ylmethyl)-1,4-dihydropyridine-3-carboxylate] | 50.77 % of control | 60.46 % of control |  | 
22 | CC1=C(C(=O)OC(C)C)C(c2ccncc2)C2=C(CCCC2=O)N1 (centres unmarked) [ST013090, methylethyl 2-methyl-5-oxo-4-(4-pyridyl)-1,4,6,7,8-pentahydroquinoline-3-carboxylate] |  |  | 87.3 | 41.1
23 | COC(=O)C1=CNC=C(C(=O)OC)C1c1cccc(OC)c1 [ST052261, methyl 5-(methoxycarbonyl)-4-(3-methoxyphenyl)-1,4-dihydropyridine-3-carboxylate] | 57.24 % of control | 38.04 % of control |  | 
24 | CC1=C(C(=O)OCC2CCCO2)C(c2cccc(Cl)c2)C2=C(CC(C)(C)CC2=O)N1 (centres unmarked) [ST017242, oxolan-2-ylmethyl 4-(3-chlorophenyl)-2,7,7-trimethyl-5-oxo-1,4,6,7,8-pentahydroquinoline-3-carboxylate] |  |  | 0 | 49.6
25 | CCc1ccc(C2C(C(=O)OC)=CNC=C2C(=O)OC)cc1 [ST052274, methyl 4-(4-ethylphenyl)-5-(methoxycarbonyl)-1,4-dihydropyridine-3-carboxylate] | 0 % of control | 4.952 % of control |  | 
